Experimental data reported in patent EP0612321B1, “PYRIDO PYRIDAZINONE AND PYRIDAZINTHIONE COMPOUNDS WITH PDE IV INHIBITING ACTIVITY” (SYNTEX (U.S.A.) INC., priority 1991, dated 1993).

How the values were obtained:
[1] = target: Human Lymphocyte PDE IV; experiment: Human Lymphocyte cAMP Phosphodiesterase Assay (inhibition of PDE IV); assay type: biochemical; settings: Inhibition of Human Lymphocyte PDE IV (human B cell line 43D supernatant)
Protocol: Human B cell line (43D) was cultured at 37°C in 7% CO2 in RPMI 1640 with L-glutamine and 10% Nu-Serum. Prior to the assay ∼1.5x10^8 cells were centrifuged at 1000 rpm for 10 minutes in a table top clinical centrifuge. The pellet was resuspended in 2-3 ml of 45 mM Tris-HCl buffer, pH 7.4. The suspension was homogenized and centrifuged at 12,000 x g 4°C for 10 minutes. The supernatant was diluted to 28 ml with Tris-HCl buffer and used directly in the assay or stored at -20°C. The final concentration of DMSO in the PDE incubation medium was 1%. Nitraquazone was included in each assay (10 and 100µM) as a reference standard.
The phosphodiesterase incubation medium contained 10 mM Tris-HCl buffer, pH 7.7, 10 mM MgSO4, 0.1-1µM […] (0.2 µCi) in a total volume of 1.0 ml. Following addition of the enzyme, the contents were mixed and incubated for 10 min at 30°C. The reaction was terminated by immersing the tubes in a boiling-water bath for 90 sec. After the tubes were cooled in an ice-water bath, 0.1 ml (100µg) of 5'-nucleotidase from snake venom (Crotalus atrox, Sigma V-7000) was added to each tube. The contents were mixed and incubated for 30 min at 30°C. The nucleotidase reaction was terminated by immersing the tubes in a boiling water bath for 60 sec. […]

[2] = system: plaque-forming cells (PFC); experiment: Hemolytic Plaque Forming Cell (PFC) Assay, immunosuppressive activity; assay type: in vivo, C3H female mice; settings: Mus musculus, 96 h; oral dosage form; mice sensitized with SRBC; spleens taken four days after SRBC inoculation; read-out: ED50 (Immune PFC)
Description: This procedure is a modification of "The agar plaque technique for recognizing antibody producing cells," a procedure initially described by Jerne, et al. [Cell-bound Antibodies, Amos and Kaprowski editors (Wistar Institute Press, Philadelphia, 1963) p. 109].
Groups of 5-6 adult C3H female mice were sensitized with 1.25 x 10^8 sheep red blood cells (SRBC) and simultaneously treated with an oral dosage form of the test material in an aqueous vehicle. Animals in a control group receive the same volume of vehicle. Four days after SRBC inoculation, spleens are dispersed in glass homogenizers. The number of nucleated cells (WBC) is determined and the spleen cell suspension is mixed with SRBC, guinea pig complement and agar solution at 0.5% concentration. Aliquots of the above mixture (0.1 ml) are dropped on four separate quadrants of a Petri dish and are covered with cover slips. After two hours incubation at 37°C, areas of hemolysis around plaque-forming cells (PFC) are counted with a dissecting microscope. Total WBC/spleen, PFC/spleen and PFC/10^6 WBC (PPM) are calculated for each mouse spleen. Geometric means of each treatment group are then compared with the vehicle-treated control group.

[3] = system: Arachidonic Acid-Induced Ear Edema (AAEE); experiment: Arachidonic Acid-Induced Ear Edema (AAEE) in the mouse, anti-inflammatory activity; assay type: in vivo, Female Charles River ICR mice; settings: 1 h, ear plug weight one hour after arachidonic acid challenge
Protocol: This procedure is a modification of a procedure described by Young et al., J. Invest. Derm., 82:367-371 (1984).
Female Charles River ICR mice 23-27 grams are administered 0.2 ml of test material. The mice are later challenged with 20 µl of arachidonic acid applied topically to the ear. One hour after challenge, the weight of an 8 mm disc is determined. The mean increase in ear plug weight is calculated. Materials with anti-inflammatory activity inhibit the increase in ear plug weight.

[4] = system: Human PBL; experiment: Mitogenic response of human peripheral blood lymphocytes to concanavalin A (3H-thymidine uptake); assay type: cell-based; settings: Lymphocyte, concanavalin A 2 µg/ml, 48 hours, read-out: % Suppression
Protocol: This procedure is a modification of a procedure initially described by Greaves, et al. ["Activation of human T and B lymphocytes by polyclonal mitogens," Nature, 248, 698-701 (1974)].
Human mononuclear cells (PBL) are separated from heparinized whole blood by density gradient centrifugation in Ficoll-Paque (Pharmacia). After washing, 5 x 10^4 cells/well are cultured in microtiter plates with minimal essential media supplemented with 1% human serum, gentamicin, sodium bicarbonate, 2-mercaptoethanol, glutamine, non-essential amino acids, and sodium pyruvate. The mitogen concanavalin A (Sigma) is used at a concentration of 2 µg/ml. Test materials are tested at concentrations between 10^-4 and 10^-10 M, by addition to the culture at time 0. Cultures are set up in quadruplicate and incubated at 37°C in a humidified atmosphere with 5% CO2 for 48 hours. A pulse of 1.0 µCi/well of ^3H-thymidine is added for the last 4 hours. Cells are collected on glass fiber filters with an automatic harvester and radioactivity is measured by standard scintillation procedures. The 50% inhibitory concentration ("IC50") for mitogenic stimulation is determined graphically. The compounds of the present invention show immunosuppressive activity when tested by this method.
The % suppression represents test well counts minus background (wells with no concanavalin A) divided by control well counts (wells with no compound) minus background times 100.

[5] = system: mice; experiment: Toxicology, 2 weeks dosing in mice; assay type: in vivo; settings: 3 to 25 mg/kg/day

Compound `O=c1c2cccnc2c(-c2cccc([N+](=O)[O-])c2)nn1Cc1ccncc1` [Compound I, 6-(4-pyridylmethyl)-8-(3-nitrophenyl)pyrido[2,3-d]pyridazin-5-one] has an IC50 [1] of 0.23 nM, an ED50 [2] of 1 mg/kg and an ED50 [3] of 0.003 mg/kg. The inhibition at 0.1 µM [4] was 83%, the inhibition at 1 µM [4] was 80% and the inhibition at 10 µM [4] was 85%. The inhibition at 100 µM [4] was 100% and the “CONCLUSION (mortality)” value [5] was “no mortality occurred at any of the dose levels tested”.
With `O=c1c2cccnc2c(-c2cccc(Cl)c2)nn1Cc1ccncc1` [Compound II, 6-(4-pyridylmethyl)-8-(3-chlorophenyl)pyrido[2,3-d]pyridazin-5-one] the IC50 [1] was 1 nM, the ED50 [2] was 3 mg/kg and the ED50 [3] was 0.009 mg/kg. For the same compound, the inhibition at 0.1 µM [4] was 74%, the inhibition at 1 µM [4] was 83% and the inhibition at 10 µM [4] was 87%. The inhibition at 100 µM [4] was 100% and the “CONCLUSION (mortality)” value [5] was “no mortality occurred at any of the dose levels tested”.
